Each block holds one molecule with its values, some of them ahead of it.
What was measured:
in vitro [1] = settings: mouse, liver microsomes
in vitro [2] = settings: human, liver microsomes
physchem [3] = assay: physchem
physchem [4] = settings: octanol/water
physchem [5] = settings: octanol/water, pH 7.4
[6] = system: Human immunodeficiency virus 1; assay: microbe, parasite or virus in culture
cells = settings: Homo sapiens, Platelet, Plasma
physchem [7] = assay: physchem; remark: listed apart in the source
Platelet [8] = assay: cells; settings: Homo sapiens, Plasma
Platelet [9] = assay: cells; settings: Homo sapiens, Plasma; remark: listed apart in the source
Rattus norvegicus = organism: Rattus norvegicus; assay: animal or person; settings: read-out: INH
in vitro [10] = settings: human, Caco-2
in vivo [11] = settings: rat, po
in vitro [12] = settings: rat, liver microsomes
in vitro [13] = settings: human, Caco-2; remark: listed apart in the source
physchem [14] = settings: octanol/water, pH 7.4; remark: listed apart in the source
in vitro [15] = settings: human, liver microsomes; remark: listed apart in the source
[16] = system: Respiratory syncytial virus; assay: microbe, parasite or virus in culture; settings: human respiratory syncytial virus
Syrian golden hamster = assay: animal or person; settings: Mesocricetus auratus
in vivo [17] = settings: rat
clinical = settings: human, in vivo

microsomal CLint (in vitro [1]): 27 µL/min/mg
microsomal CLint (in vitro [2]): 2 µL/min/mg
solubility (physchem [3]): 4000 µg/mL
SMILES: CN(C)CCCCc1ccc(C2COC2)cc1

logP (physchem [4]): 4.3
microsomal CLint (in vitro [1]): 417 µL/min/mg
microsomal CLint (in vitro [2]): 16 µL/min/mg
logD (physchem [5]): 1.8
solubility (physchem [3]): < 1 µg/mL
SMILES: CN(C)CCCCc1ccc(C(C)(C)C)cc1

microsomal CLint (in vitro [1]): 43 µL/min/mg
solubility (physchem [3]): 4400 µg/mL
SMILES: CN(C)CCCCc1ccc(C2(C)COC2)cc1

microsomal CLint (in vitro [1]): 13 µL/min/mg
microsomal CLint (in vitro [2]): 6 µL/min/mg
solubility (physchem [3]): 4100 µg/mL
SMILES: CN(C)CCC1(Cc2ccc(C(C)(C)C)cc2)COC1

microsomal CLint (in vitro [1]): 580 µL/min/mg
microsomal CLint (in vitro [2]): 13 µL/min/mg
solubility (physchem [3]): 57 µg/mL
SMILES: CN(C)C1(CCCc2ccc(C(C)(C)C)cc2)COC1

microsomal CLint (in vitro [1]): 147 µL/min/mg
solubility (physchem [3]): 270 µg/mL
SMILES: CN(C)CCCC1(c2ccc(C(C)(C)C)cc2)COC1

pKa (physchem [7]): 7.12
SMILES: Oc1c(F)cccc1F

logP (physchem [4]): 3.56
SMILES: O=C(c1ccccc1)c1ccn(-c2cc(F)c(O)c(F)c2)c1

Papp (in vitro [10]): 7.41 ×10⁻⁶ cm/s
SMILES: Cc1nccn1-c1ccc(NC(=O)c2cc(C(F)(F)F)nn2-c2ccc3onc(N)c3c2)c(F)c1

Papp (in vitro [10]): < 0.1 ×10⁻⁶ cm/s
SMILES: Cc1nccn1-c1ccc(NC(=O)c2cc(C(F)(F)F)nn2-c2ccc3onc(N)c3c2)c(C#N)c1

bioavailability (in vivo [11]): 70%
SMILES: CCc1cc(C#N)ccc1Nc1c(N[C@H](C)C(C)(C)C)c(=O)c1=O

half-life (in vitro [12]): 18 min
Papp (in vitro [13]): 19.8 ×10⁻⁶ cm/s
logD (physchem [14]): 2.77
half-life (in vitro [15]): 65 min
pKa (physchem [7]): 9.27
solubility (physchem [3]): 78 µM
SMILES: O=C(CCCN1CC[Si](O)(c2ccc(Cl)cc2)CC1)c1ccc(F)cc1

Papp (in vitro [10]): 0.82 ×10⁻⁶ cm/s
SMILES: Cc1nccn1-c1ccc(NC(=O)c2cc(C(F)(F)F)nn2-c2ccc3onc(N)c3c2)cc1

half-life (in vivo [17]): 3.5 h
SMILES: Cc1ccc(-c2cc(C(F)(F)F)nn2-c2ccc(S(N)(=O)=O)cc2)cc1 [CELECOXIB]

Papp (in vitro [13]): 18.9 ×10⁻⁶ cm/s
logD (physchem [14]): 2.42
solubility (physchem [3]): 90 µM
SMILES: O=C(CCCN1CCC(O)(c2ccc(Cl)cc2)CC1)c1ccc(F)cc1 [HALOPERIDOL]

half-life (in vivo [17]): 221 h
SMILES: CS(=O)(=O)c1ccc(-n2nc(C(F)(F)F)cc2-c2ccc(F)cc2)cc1 [SC-58125]

Further lines, the molecule ahead of its results:

SMILES: O=C(N[C@H]1c2ccccc2C[C@H]1O)[C@H](Cc1ccccc1)CC(O)C[C@@H](Cc1ccccc1)C(=O)N[C@H]1c2ccccc2C[C@H]1O
EC90 [6]: 23 nM

SMILES: NCc1cc(F)c(O)c(F)c1
logP (physchem [4]): 1.01

SMILES: O=C(O)/C=C/c1cccc(CCc2nc(-c3ccccc3)c(-c3ccccc3)o2)c1
EC50 (cells): 660 nM

SMILES: O=C(O)CCc1cccc(CCc2nc(-c3ccccc3)c(-c3ccccc3)o2)c1
EC50 (cells): 16000 nM

SMILES: O=C(O)/C=C/c1cccc(OCc2nc(-c3ccccc3)c(-c3ccccc3)o2)c1
EC50 (cells): 14000 nM

SMILES: O=C(O)COc1cccc(-c2ocnc2-c2nc(-c3ccccc3)c(-c3ccccc3)o2)c1
EC50 (Platelet [8]): 27 nM
EC50 (Platelet [9]): 27 nM

SMILES: O=c1c(O)c(-c2ccccc2)c1=O
pKa (physchem [7]): 0.37

SMILES: O=S(=O)(Nc1ccncc1Oc1ccccc1)C(F)(F)F
inhibition in vivo at 30 mg/kg (Rattus norvegicus): 54.1%

SMILES: O=C(N[C@H]1c2ccccc2C[C@H]1O)[C@H](Cc1ccccc1)C[Si](O)(O)C[C@@H](Cc1ccccc1)C(=O)N[C@H]1c2ccccc2C[C@H]1O
EC90 [6]: 170 nM

SMILES: COC(=O)N[C@@H](C(=O)NCCCC[C@H](CO)N(CC(C)C)S(=O)(=O)c1ccc(CN)cc1)C(c1ccccc1)c1ccccc1
EC50 [6]: 30 nM

SMILES: C=C(C)n1c(=O)n(Cc2nc3ccccc3n2CCCC#N)c2cnccc21
half-life (in vitro [15]): 11 min
EC50 [16]: 3 nM

SMILES: COc1ccc(C2[C@@H](CCCc3ccccc3)C(=O)N2c2ccc(OC)cc2)cc1 (stereo not given in full)
ED50 (Syrian golden hamster): 2.2 mg/kg

SMILES: NCc1ccc(F)c(O)c1F
logP (physchem [4]): 1.01

SMILES: O=C(O)CCc1cccc(OCc2nc(-c3ccccc3)c(-c3ccccc3)o2)c1
EC50 (cells): > 80000 nM

SMILES: O=C(O)COc1cccc(/C=C\c2nc(-c3ccccc3)c(-c3ccccc3)o2)c1
EC50 (Platelet [8]): 180 nM
EC50 (Platelet [9]): 180 nM

SMILES: O=C(O)COc1cccc(OCc2nc(-c3ccccc3)c(-c3ccccc3)o2)c1
EC50 (cells): 1200 nM

SMILES: O=C(O)COc1cccc(-c2ncoc2-c2nc(-c3ccccc3)c(-c3ccccc3)o2)c1
EC50 (Platelet [8]): 160 nM
EC50 (Platelet [9]): 160 nM

SMILES: O=C(O)Cn1ccc(C(=O)c2ccccc2)c1
logP (physchem [4]): 1.23

SMILES: COc1ccc(C(CN(C)C)[Si]2(O)CCCCC2)cc1 (racemic)
logP (physchem [4]): 3.21
logD (physchem [14]): 0.92
pKa (physchem [7]): 9.7

SMILES: COc1ccc(C(CN(C)C)C2(O)CCCCC2)cc1 (racemic) [VENLAFAXINE]
logP (physchem [4]): 3.13
logD (physchem [14]): 0.88

SMILES: O=C1N(Cc2ccc(CO)cc2)[C@H](Cc2ccccc2)[C@H](O)[C@@H](O)[C@@H](Cc2ccccc2)N1Cc1ccc(CO)cc1 [DMP-323]
EC90 [6]: 57 nM

SMILES: O=C1[C@H](CC[C@H](O)c2ccc(F)cc2)[C@@H](c2ccc(O)cc2)N1c1ccc(F)cc1 [EZETIMIBE]
ED50 (Syrian golden hamster): 0.04 mg/kg

SMILES: CC#CCC(C)[C@H](O)/C=C/[C@@H]1[C@H]2C/C(=C/CCCC(=O)O)C[C@H]2C[C@H]1O (stereo not given in full) [ILOPROST]
half-life (clinical): 20 min

Source: ChEMBL document CHEMBL2203023, “Synopsis of some recent tactical application of bioisosteres in drug design” (J Med Chem, 2011)
